Source: ChEMBL document CHEMBL4507273 (2021)

Target: Casein kinase II subunit alpha' (Homo sapiens) (UniProt P19784)
Assay: CK2alpha2(h) Eurofins Kinase panel
Settings: Compound concentration 1.0 uM

Casein kinase II subunit alpha' (Homo sapiens), sequence (P19784 whole entry, looked up): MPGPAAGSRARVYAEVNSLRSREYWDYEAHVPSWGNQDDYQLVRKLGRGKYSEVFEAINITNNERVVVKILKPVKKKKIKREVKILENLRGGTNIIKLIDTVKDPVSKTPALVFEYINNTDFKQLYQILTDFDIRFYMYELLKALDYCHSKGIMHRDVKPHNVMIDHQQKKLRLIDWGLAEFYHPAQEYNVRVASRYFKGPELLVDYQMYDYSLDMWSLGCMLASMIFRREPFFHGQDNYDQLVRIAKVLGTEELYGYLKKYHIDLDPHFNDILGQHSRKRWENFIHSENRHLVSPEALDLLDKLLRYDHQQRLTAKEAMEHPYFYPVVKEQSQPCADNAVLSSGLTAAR

CNCc1ccccc1-c1csc([C@@H](C)Nc2nc(C)nc3cc(OC)c(OC)cc23)c1 [BAY-293]
% residual kinase activity: 67%
